Data set [1] has as its system maximal electroshock-induced seizures. Kind of data set: Maximal electroshock-induced seizures (MES). In kind it is in vivo, mice. Particulars: for ED50: Mus musculus, mice, tonic hindlimb extensor response, corneal electrodes 50 mA; for activity against maximal electroshock (MES): statement in words, refers to Table 3. The procedure:
Maximal Electroshock-induced Seizures
Seizures were induced by application of current (50 mA, 60 pulses/sec, 0.8 sec pulse width, 1 sec duration, d.c.) through saline-coated corneal electrodes using a Ugo Basile ECT device (Model 7801). […] A tonic seizure was defined as a hindlimb extension in excess of 90 degrees from the plane of the body. Results were treated in a quantal manner.
(In general: The maximal electroshock test induces tonic seizures with an electrical stimulus.)

In the next data set the target is NR1A/NR2A NMDA receptor (Rattus norvegicus, UniProt P35439+Q00959). Nature of the data set: Electrophysiological assay, cloned NMDA receptor subunits expressed in Xenopus oocytes (1A/2A). In kind it is cell-based. An excerpt:
(§1) Electrophysiological Assays at NMDA Receptor Subunits
(§2) cDNA clones encoding the NR1A, NR2A, NR2B, NR2C and NR2D rat NMDA receptor subtypes were provided by Dr. P. H. Seeburg (see, Moriyoshi et al., Nature (Lond.) 354:31-37 (1991); Kutsuwada et al., Nature (Lond.) 358:36-41 (1992) Monyer et al., Science (Washington, D.C.) 256:1217-1221 (1992); Ikeda et al., FEBS Lett. 313:34-38 (1992); Ishii et al., J. Biol. Chem. 268:2836-2843 (1993) for details of these clones or their mouse homologs). The clones were transformed into appropriate host bacteria and plasmid preparations were made with conventional DNA purification techniques. […]
(§3) Electrical recordings were made using a conventional two-electrode voltage clamp (Dagan TEV-200) over periods ranging between 3-21 days following injection. […] Inhibitory potency of the novel antagonists was assessed on responses elicited by fixed concentrations of glutamate and glycine, by measuring reductions in current induced by progressively increasing concentrations of antagonist. […]
(§4) in which Icontrol is the current evoked by agonists alone, pIC50=−log IC50, IC50 is the concentration of antagonist that produces half maximal inhibition, and n is the slope factor. […] For incomplete curves analysis by fitting was unreliable and IC50 values were calculated by simple regression over linear portions of the curves (Origin: Microcal Software).

The next data set concerns the target NR1A/NR2B NMDA receptor (Rattus norvegicus, UniProt P35439+Q00960). Nature of the data set: Electrophysiological assay, cloned NMDA receptor subunits expressed in Xenopus oocytes (1A/2B). The format is cell-based.
Source text: as §1
cDNA clones encoding the NR1A, NR2A, NR2B, NR2C and NR2D rat NMDA receptor subtypes were provided by Dr. P. H. Seeburg (see, Moriyoshi et al., Nature (Lond.) 354:31-37 (1991); Kutsuwada et al., Nature (Lond.) 358:36-41 (1992) Monyer et al., Science (Washington, D.C.) 256:1217-1221 (1992); Ikeda et al., FEBS Lett. 313:34-38 (1992); Ishii et al., J. Biol. Chem. 268:2836-2843 (1993) for details of these clones or their mouse homologs). The clones were transformed into appropriate host bacteria and plasmid preparations were made with conventional DNA purification techniques. A sample of each clone was linearized by restriction enzyme digestion and cRNA was synthesized with T3 RNA polymerase. The CRNA was diluted to 400 ng/μl and stored in 1 μl aliquots at −80° C. until injection.
Mature female Xenopus laevis were anaesthetized (20-40 min) using 0.15% 3-aminobenzoic acid ethyl ester (MS-222) and 2-4 ovarian lobes were surgically removed. Oocytes at developmental stages IV-VI (Dumont, J. N., J. Morphol. 136:153-180 (1972)), were dissected from the ovary still surrounded by enveloping ovarian tissues. Follicle-enclosed oocytes were micro-injected with 1:1 mixtures of cRNA:NR1A+NR2A, 2B, 2C or 2D; injecting ˜2,5, or 20 ng of RNA encoding each receptor subunit. […]
as §3, §4

A further data set deals with NR1A/NR2C NMDA receptor (Rattus norvegicus, UniProt P35439+Q00961). Kind of data set: Electrophysiological assay, cloned NMDA receptor subunits expressed in Xenopus oocytes (1A/2C). In kind it is cell-based. The note with it: read-out: Subunits (IC50 (μM)) 1A/2C, mean IC50, inhibition of NMDA-activated membrane current responses, glutamate 100 μM + glycine.
Source text: as §1, §2, §3, §4

A further data set has as its target NR1A/NR2D NMDA receptor (Rattus norvegicus, UniProt P35439+Q62645). Nature of the data set: Electrophysiological assay, cloned NMDA receptor subunits expressed in Xenopus oocytes (1A/2D). The format is cell-based. Particulars: read-out: Subunits (IC50 (μM)) 1A/2D, mean IC50, inhibition of NMDA-activated membrane current responses, glutamate 100 μM + glycine.
Source text: as §1, §2, §3, §4

The mark [2] stands for this setting: mean IC50, inhibition of NMDA-activated membrane current responses, glutamate 100 μM + glycine, read-out: Subunits (IC50 (μM)) 1A/2B.

Consider 15 molecules from patent US6448270B1, “4-substituted piperidine analogs and their use as subtype selective NMDA receptor antagonists” (Warner-Lambert Company, priority 1995, dated 2002).

Like-named read-outs stand apart in the source and are kept apart here.

Sequence of NR1A/NR2B NMDA receptor (Q00960 27-1482, other chains not shown): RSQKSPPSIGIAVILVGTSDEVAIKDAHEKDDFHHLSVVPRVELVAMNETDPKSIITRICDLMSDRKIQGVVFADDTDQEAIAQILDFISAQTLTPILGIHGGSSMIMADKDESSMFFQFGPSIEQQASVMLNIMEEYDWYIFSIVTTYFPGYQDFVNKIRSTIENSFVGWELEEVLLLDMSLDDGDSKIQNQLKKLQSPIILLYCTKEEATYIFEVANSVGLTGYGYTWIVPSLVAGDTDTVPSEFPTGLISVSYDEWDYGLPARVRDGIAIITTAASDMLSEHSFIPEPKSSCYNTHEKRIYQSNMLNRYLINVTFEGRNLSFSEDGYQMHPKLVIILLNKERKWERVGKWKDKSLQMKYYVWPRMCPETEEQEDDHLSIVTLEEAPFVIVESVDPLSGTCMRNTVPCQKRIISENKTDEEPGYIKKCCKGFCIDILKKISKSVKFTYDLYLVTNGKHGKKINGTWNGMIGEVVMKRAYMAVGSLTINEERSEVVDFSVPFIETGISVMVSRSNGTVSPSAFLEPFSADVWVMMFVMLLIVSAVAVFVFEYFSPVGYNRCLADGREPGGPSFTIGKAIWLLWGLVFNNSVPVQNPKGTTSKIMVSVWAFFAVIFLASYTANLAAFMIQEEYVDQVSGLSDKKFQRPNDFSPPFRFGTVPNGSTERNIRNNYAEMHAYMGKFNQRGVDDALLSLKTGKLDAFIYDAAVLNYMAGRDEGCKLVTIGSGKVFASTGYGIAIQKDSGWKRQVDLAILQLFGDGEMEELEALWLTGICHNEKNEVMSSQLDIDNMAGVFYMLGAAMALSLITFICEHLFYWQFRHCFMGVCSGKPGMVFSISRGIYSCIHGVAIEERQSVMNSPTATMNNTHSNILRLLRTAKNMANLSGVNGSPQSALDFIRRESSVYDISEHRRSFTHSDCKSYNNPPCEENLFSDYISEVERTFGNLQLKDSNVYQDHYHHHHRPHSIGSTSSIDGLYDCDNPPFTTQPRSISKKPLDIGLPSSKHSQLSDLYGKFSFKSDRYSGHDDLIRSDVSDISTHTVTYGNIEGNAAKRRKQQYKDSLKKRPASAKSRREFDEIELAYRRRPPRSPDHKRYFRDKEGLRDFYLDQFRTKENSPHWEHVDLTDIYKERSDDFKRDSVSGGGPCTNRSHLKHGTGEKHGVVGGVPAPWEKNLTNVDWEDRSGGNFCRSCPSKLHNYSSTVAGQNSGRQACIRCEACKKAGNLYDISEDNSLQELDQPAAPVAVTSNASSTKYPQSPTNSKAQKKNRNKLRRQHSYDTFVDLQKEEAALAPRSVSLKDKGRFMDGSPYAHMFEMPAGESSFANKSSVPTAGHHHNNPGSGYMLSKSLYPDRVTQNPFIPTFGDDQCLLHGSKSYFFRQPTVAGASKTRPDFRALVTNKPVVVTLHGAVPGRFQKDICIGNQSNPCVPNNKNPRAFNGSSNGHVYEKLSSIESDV
Sequence of NR1A/NR2A NMDA receptor (Q00959 20-1464 limits assumed, other chains not shown): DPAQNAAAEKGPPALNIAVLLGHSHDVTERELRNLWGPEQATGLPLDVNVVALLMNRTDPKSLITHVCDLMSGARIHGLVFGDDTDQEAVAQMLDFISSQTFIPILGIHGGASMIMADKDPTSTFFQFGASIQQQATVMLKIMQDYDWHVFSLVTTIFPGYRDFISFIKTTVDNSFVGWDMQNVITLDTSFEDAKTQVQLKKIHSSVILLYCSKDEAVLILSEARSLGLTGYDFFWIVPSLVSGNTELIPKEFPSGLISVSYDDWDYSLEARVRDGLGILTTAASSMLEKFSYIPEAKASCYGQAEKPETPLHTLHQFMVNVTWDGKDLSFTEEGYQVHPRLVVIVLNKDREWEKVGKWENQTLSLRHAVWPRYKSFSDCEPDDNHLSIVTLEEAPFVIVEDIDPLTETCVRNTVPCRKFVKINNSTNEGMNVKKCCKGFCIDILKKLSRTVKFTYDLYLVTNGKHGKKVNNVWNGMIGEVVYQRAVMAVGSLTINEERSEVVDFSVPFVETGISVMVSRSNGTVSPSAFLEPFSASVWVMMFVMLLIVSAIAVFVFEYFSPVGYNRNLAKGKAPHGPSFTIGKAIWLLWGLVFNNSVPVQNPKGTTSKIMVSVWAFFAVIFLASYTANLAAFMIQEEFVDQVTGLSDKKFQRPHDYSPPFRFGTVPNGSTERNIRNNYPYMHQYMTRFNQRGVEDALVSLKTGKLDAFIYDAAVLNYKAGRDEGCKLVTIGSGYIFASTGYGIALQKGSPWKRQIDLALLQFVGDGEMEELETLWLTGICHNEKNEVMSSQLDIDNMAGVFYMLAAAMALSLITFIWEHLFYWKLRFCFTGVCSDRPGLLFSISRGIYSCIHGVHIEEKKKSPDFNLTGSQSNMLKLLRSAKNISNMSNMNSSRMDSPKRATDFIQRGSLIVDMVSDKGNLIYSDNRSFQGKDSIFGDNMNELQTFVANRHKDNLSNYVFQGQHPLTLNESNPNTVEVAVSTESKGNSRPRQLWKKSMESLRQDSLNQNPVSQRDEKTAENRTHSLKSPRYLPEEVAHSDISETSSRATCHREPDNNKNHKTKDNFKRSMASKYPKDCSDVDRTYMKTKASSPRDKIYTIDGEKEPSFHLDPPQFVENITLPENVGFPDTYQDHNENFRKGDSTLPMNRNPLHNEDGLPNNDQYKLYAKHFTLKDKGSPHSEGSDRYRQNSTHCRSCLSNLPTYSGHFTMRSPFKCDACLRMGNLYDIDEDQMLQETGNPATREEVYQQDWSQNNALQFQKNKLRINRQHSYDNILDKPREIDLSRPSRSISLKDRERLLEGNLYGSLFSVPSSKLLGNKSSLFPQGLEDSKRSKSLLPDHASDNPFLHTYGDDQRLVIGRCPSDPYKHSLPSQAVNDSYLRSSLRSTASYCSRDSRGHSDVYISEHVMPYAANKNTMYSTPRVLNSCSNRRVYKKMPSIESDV
Sequence of NR1A/NR2D NMDA receptor (Q62645 28-1323, other chains not shown): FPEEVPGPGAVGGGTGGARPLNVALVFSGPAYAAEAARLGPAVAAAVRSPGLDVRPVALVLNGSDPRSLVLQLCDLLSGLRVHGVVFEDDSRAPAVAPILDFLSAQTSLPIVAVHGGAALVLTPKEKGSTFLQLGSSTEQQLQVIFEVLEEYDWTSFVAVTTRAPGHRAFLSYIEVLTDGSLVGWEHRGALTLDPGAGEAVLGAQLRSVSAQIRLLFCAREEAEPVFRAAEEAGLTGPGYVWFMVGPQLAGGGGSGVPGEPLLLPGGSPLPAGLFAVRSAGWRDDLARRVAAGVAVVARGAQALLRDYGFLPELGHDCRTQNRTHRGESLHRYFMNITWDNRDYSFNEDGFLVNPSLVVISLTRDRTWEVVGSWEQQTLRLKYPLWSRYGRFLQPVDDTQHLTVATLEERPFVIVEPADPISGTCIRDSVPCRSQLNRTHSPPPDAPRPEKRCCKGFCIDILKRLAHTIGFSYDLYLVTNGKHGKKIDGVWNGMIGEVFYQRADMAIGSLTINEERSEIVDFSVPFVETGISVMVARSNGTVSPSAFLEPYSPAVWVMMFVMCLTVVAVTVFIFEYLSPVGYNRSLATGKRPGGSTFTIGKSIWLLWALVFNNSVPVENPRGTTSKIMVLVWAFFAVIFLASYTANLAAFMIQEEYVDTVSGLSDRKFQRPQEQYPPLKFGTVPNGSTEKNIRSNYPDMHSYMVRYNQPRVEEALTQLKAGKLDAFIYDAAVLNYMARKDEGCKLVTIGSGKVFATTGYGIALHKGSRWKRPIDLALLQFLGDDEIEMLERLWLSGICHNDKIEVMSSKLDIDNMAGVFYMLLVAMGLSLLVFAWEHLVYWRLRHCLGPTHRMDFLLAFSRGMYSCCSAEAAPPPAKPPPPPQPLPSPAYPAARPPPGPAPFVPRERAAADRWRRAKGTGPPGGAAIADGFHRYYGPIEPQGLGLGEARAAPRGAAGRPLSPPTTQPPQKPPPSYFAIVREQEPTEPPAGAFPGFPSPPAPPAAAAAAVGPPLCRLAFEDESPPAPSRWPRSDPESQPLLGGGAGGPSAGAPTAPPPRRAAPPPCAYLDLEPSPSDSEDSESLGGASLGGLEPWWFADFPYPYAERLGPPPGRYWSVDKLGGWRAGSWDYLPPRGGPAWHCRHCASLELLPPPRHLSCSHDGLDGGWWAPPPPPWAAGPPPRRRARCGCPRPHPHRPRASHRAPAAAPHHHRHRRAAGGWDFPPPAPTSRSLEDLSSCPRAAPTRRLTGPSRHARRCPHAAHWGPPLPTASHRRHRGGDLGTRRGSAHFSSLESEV

Usually ED50 stands for the midpoint of the dose-response relation. High values mean weaker potency, low ones greater potency. For `Nc1cccc(C#CCCN2CCC(O)(c3ccc(Cl)cc3)CC2)c1` [Ex. 8, 1-[4-(3-Aminophenyl)-3-butynyl]-4-hydroxy-4-(4-chlorophenyl)piperidine], in data set [1], the ED50 was found to be 10 mg/kg and the “activity against maximal electroshock (MES)” value (from here on “activity”) is given as “potent activity”.
On to `Oc1ccc(C#CCCN2CCC(Cc3ccccc3)CC2)cc1` [Ex. 42, 4-[4-(4-Benzyl-piperidin-1-yl)-but-1-ynyl]-phenol], for which, in data set [1], it took a dose of 2.5 mg/kg to reach the 50% effect level (ED50) and the “activity” value was “potent activity”.
In the case of `Nc1cccc(C#CCCN2CC=C(c3ccccc3)CC2)c1` [Ex. 14, 1-[4-(5-Aminophenyl)-3-butynyl]-4-phenyl-1,2,5,6-tetrahydropyridine], the IC50 at NR1A/NR2A NMDA receptor (read-out: Subunits (IC50 (μM)) 1A/2A, mean IC50, inhibition of NMDA-activated membrane current responses, glutamate 100 μM + glycine) is 40 µM; at NR1A/NR2B NMDA receptor (read-out: Subunits (IC50 (μM)) 1A/2B, mean IC50, inhibition of NMDA-activated membrane current responses, glutamate 100 μM + glycine), 30 µM; at NR1A/NR2C NMDA receptor it was more than 100 µM; at NR1A/NR2D NMDA receptor, more than 100 µM.
Regarding `Nc1ccc(C#CCCN2CCC(Cc3ccccc3)CC2)cc1` [Ex. 30, 1-(4-(4-Aminophenyl)-3-butynyl)-4-benzylpiperidine], in data set [1], it took a dose of 1.8 mg/kg to reach the 50% effect level (ED50) and the “activity” value is “potent activity”.
The melting point is the temperature of the solid-liquid transition. Molecule `CCCCNC(=N)Nc1cccc(C#CCCN2CCC(O)(c3ccc(Cl)cc3)CC2)c1` [Ex. 28, N-n-Butyl-N′-(3-(4-(4-(4-chlorophenyl)-4-hydroxy)piperidinyl)butynyl)phenylguanidine] had a melting point of 98 to 100 °C. For the same molecule, in data set [1], it took a dose of 10 mg/kg to reach the 50% effect level (ED50) and the “activity” value is recorded as “potent activity”.
Take `O=[N+]([O-])c1ccc(C#CCCN2CCC(Cc3ccccc3)CC2)cc1` [Ex. 40, 4-Benzyl-1-[4-(4-nitro-phenyl)-but-3-ynyl]-piperidine]: the IC50 on NR1A/NR2B NMDA receptor (setting [2]) turned out to be 5 µM.
On to `Nc1ccc(C#CCN2CCC(Cc3ccccc3)CC2)cc1` [Ex. 63, 4-[3-(4-Benzyl-piperidin-1-yl)-prop-1-ynyl]-phenylamine], for which the IC50 at NR1A/NR2B NMDA receptor (setting [2]) amounted to 12 µM.
Consider `Cc1ccc(CC2CCN(CCC#Cc3ccc(N)cc3)CC2)cc1` [Ex. 39, 4-{4-[4-(4-Methyl-benzyl)-piperidin-1-yl]-but-1-ynyl}-phenylamine], for which, in data set [1], the ED50 turned out to be 2.5 mg/kg and the “activity” value is reported as “potent activity”.
`CC(=O)Nc1ccc(C#CCCN2CCC(Cc3ccccc3)CC2)cc1` [Ex. 53, N-{4-[4-(4-Benzyl-piperidin-1-yl)-but-1-ynyl]-phenyl}-acetamide]: in data set [1], the 50% effect level (ED50) was put at a dose of 8 mg/kg and the “activity” value is given as “potent activity”.
With `NS(=O)(=O)c1ccc(C#CCCN2CCC(Cc3ccccc3)CC2)cc1` [Ex. 59, 4-[4-(4-Benzyl-piperidin-1-yl)-but-1-ynyl]-benzenesulfonamide], in data set [1], the median effective dose (ED50) was more than 5 mg/kg.
On to `Cc1ccc(CC2CCN(CCC#Cc3ccc(O)cc3)CC2)cc1` [Ex. 67, 4-{4-[4-(4-Methyl-benzyl)-piperidin-1-yl]-but-1-ynyl}-phenol], for which, in data set [1], it took a dose of 6 mg/kg to reach the 50% effect level (ED50) and the “activity” value is on record as “potent activity”.
On to `NCc1cccc(C#CCCN2CCC(Cc3ccccc3)CC2)c1` [Ex. 52, 3-[4-(4-Benzyl-piperidin-1-yl)-but-1-ynyl]-benzylamine], for which, at NR1A/NR2A NMDA receptor (mean IC50, inhibition of NMDA-activated membrane current responses, glutamate 100 μM + glycine, read-out: Subunits (IC50 (μM)) 1A/2A), the IC50 was 15 µM.
On to `CNc1ccc(C#CCCN2CCC(Cc3ccccc3)CC2)cc1` [Ex. 54, {4-[4-(4-Benzyl-piperidin-1-yl)-but-1-ynyl]-phenyl}-methyl-amine], for which, in data set [1], it took a dose of 6.5 mg/kg to reach the 50% effect level (ED50) and the “activity” value is listed as “potent activity”.
`Cc1ccc(CC2(O)CCN(CCC#Cc3ccc(N)cc3)CC2)cc1` [Ex. 77, 1-(1-(4-Aminophenyl)-1-butyn-4-yl)-4-hydroxy-4-(4-methylbenzyl)piperidine] registered an ED50 in data set [1] of 0.4 mg/kg.
Turning to `C(#Cc1ccccc1)CCN1CCC(Cc2ccccc2)CC1` [Ex. 18, 4-Benzyl-1-(4-phenyl-3-butynyl)piperidine], in data set [1], the ED50 is 3.5 mg/kg and the “activity” value is “potent activity”.
